Laboratory results reported in US11180504B2 (ORCHID PHARMA LTD., priority 2016, dated 2021).
≈ marks a conversion by molar mass, not a printed value. Where two headings read alike, the source gives them in different places.

Assays:
[1] = system: methicillin-sensitive Staphylococcus aureus; experiment: MIC by broth micro-dilution (CLSI), methicillin-sensitive S. aureus; format: cell-based; conditions: Staphylococcus aureus, ATCC 29213 / MSSA, MSSA S. aureus ATCC29213; read-out: MIC
[2] = system: carbapenem sensitive Escherichia coli; experiment: MIC by broth micro-dilution (CLSI), carbapenem sensitive E. coli; format: cell-based; conditions: Escherichia coli, ATCC25922, ESBL −ve E. coli ATCC25922; read-out: MIC
[3] = system: carbapenemase producing K. pneumoniae; experiment: MIC by broth micro-dilution (CLSI), carbapenemase producing K. pneumoniae; format: cell-based, Klebsiella pneumoniae; conditions: Klebsiella pneumoniae
[4] = system: carbapenem sensitive Pseudomonas aeruginosa; experiment: MIC by broth micro-dilution (CLSI), carbapenem sensitive P. aeruginosa; format: cell-based; conditions: Pseudomonas aeruginosa, ATCC27853, Meropenem susceptible P. aeruginosa ATCC27853; read-out: MIC
[5] = ATCCBAA1705, KPC-2 K. pneumoniae ATCC BAA-1705, read-out: MIC

SMILES	MIC [1]	MIC [2]	MIC [3, 5]	MIC [4]	MIC ([3]; ATCCBAA1705)
C[C@@H](NC(=O)Cn1cnnn1)[C@H]1C(=O)N2C(C(=O)O)=C(S[C@@H]3CN[C@H](C(=O)N4CCN(C(=O)CN)CC4)C3)[C@H](C)[C@H]12 [Example 395, (4R,5S,6R)-6-((R)-1-(2-(1H-tetrazol-1-yl)acetamido)ethyl)-3-((3S,5S)-5-(4-(2-aminoacetyl)piperazine-1-carbonyl)pyrrolidin-3-ylthio)-4-methyl-7-oxo-1-azabicyclo[3.2.0]hept-2-ene-2-carboxylic acid]	2 µg/mL (≈ 3.39 µM)	0.125 µg/mL (≈ 0.212 µM)	1 µg/mL (≈ 1.69 µM)	1 µg/mL (≈ 1.69 µM)	–
C[C@@H](NC(=O)Cn1cnnn1)[C@H]1C(=O)N2C(C(=O)O)=C(S[C@@H]3CN[C@H](C(=O)N4C[C@@H](O)[C@H](O)C4)C3)[C@H](C)[C@H]12 [Example 396, (4R,5S,6R)-6-((R)-1-(2-(1H-tetrazol-1-yl)acetamido)ethyl)-3-((3S,5S)-5-((3R,4R)-3,4-dihydroxypyrrolidine-1-carbonyl)pyrrolidin-3-ylthio)-methyl-7-oxo-1-azabicyclo[3.2.0]hept-2-ene-2-carboxylic acid]	4 µg/mL (≈ 7.26 µM)	0.125 µg/mL (≈ 0.227 µM)	1 µg/mL (≈ 1.82 µM)	4 µg/mL (≈ 7.26 µM)	–
C[C@@H](NC(=O)Cn1cnnn1)[C@H]1C(=O)N2C(C(=O)O)=C(S[C@@H]3CN[C@H](C(=O)N4CCC5(CC6CCC(C5)N6)C4)C3)[C@H](C)[C@H]12 (stereo partly drawn) [Example 397, (4R,5S,6R)-6-((R)-1-(2-(1H-tetrazol-1-yl)acetamido)ethyl)-3-((3S,5S)-5-(8-azaspiro[bicyclo[3.2.1]octane-3,3′-pyrrolidine]-1′-ylcarbonyl)pyrrolidin-3-ylthio)-4-methyl-7-oxo-1-azabicyclo[3.2.0]hept-2-ene-2-carboxylic acid]	2 µg/mL (≈ 3.26 µM)	0.25 µg/mL (≈ 0.407 µM)	–	2 µg/mL (≈ 3.26 µM)	1 µg/mL (≈ 1.63 µM)
C[C@@H](NC(=O)Cn1cnnn1)[C@H]1C(=O)N2C(C(=O)O)=C(S[C@@H]3CN[C@H](C(=O)N4CC[C@@H](NC(=O)CN)C4)C3)[C@H](C)[C@H]12 [Example 398, (4R,5S,6R)-6-((R)-1-(2-(1H-tetrazol-1-yl)acetamido)ethyl)-3-((3S,5S)-5-((R)-3-(2-aminoacetamido)pyrrolidine-1-carbonyl)pyrrolidin-3-ylthio)-4-methyl-7-oxo-1-azabicyclo[3.2.0]hept-2-ene-2-carboxylic acid]	4 µg/mL (≈ 6.77 µM)	0.25 µg/mL (≈ 0.423 µM)	1 µg/mL (≈ 1.69 µM)	2 µg/mL (≈ 3.39 µM)	–
C[C@@H](NC(=O)Cn1cnnn1)[C@H]1C(=O)N2C(C(=O)O)=C(S[C@@H]3CN[C@H](C(=O)N4CC[C@@H](NC(=N)N)C4)C3)[C@H](C)[C@H]12 [Example 399, (4R,5S,6R)-6-((R)-1-(2-(1H-tetrazol-1-yl)acetamido)ethyl)-3-((3S,5S)-5-((R)-3-guanidinopyrrolidine-1-carbonyl)pyrrolidin-3-ylthio)-4-methyl-7-oxo-1-azabicyclo[3.2.0]hept-2-ene-2-carboxylic acid]	2 µg/mL (≈ 3.47 µM)	0.125 µg/mL (≈ 0.217 µM)	2 µg/mL (≈ 3.47 µM)	8 µg/mL (≈ 13.9 µM)	–
C[C@@H](NC(=O)Cn1cnnn1)[C@H]1C(=O)N2C(C(=O)O)=C(S[C@@H]3CN[C@H](C(=O)N4C[C@@H](N)[C@@H](O)C4)C3)[C@H](C)[C@H]12 [Example 400, (4R,5S,6R)-6-((R)-1-(2-(1H-tetrazol-1-yl)acetamido)ethyl)-3-((3S,5S)-5-((3R,4S)-3-amino-4-hydroxypyrrolidine-1-carbonyl)pyrrolidin-3-ylthio)-4-methyl-7-oxo-1-azabicyclo[3.2.0]hept-2-ene-2-carboxylic acid]	4 µg/mL (≈ 7.28 µM)	0.125 µg/mL (≈ 0.227 µM)	1 µg/mL (≈ 1.82 µM)	1 µg/mL (≈ 1.82 µM)	–
C[C@@H](NC(=O)Cn1cnnn1)[C@H]1C(=O)N2C(C(=O)O)=C(S[C@@H]3CN[C@H](C(=O)N4CC[C@@H](NCCN)C4)C3)[C@H](C)[C@H]12 [Example 401, (4R,5S,6R)-6-((R)-1-(2-(1H-tetrazol-1-yl)acetamido)ethyl)-3-((3S,5S)-5-((R)-3-(2-aminoethylamino)pyrrolidine-1-carbonyl)pyrrolidin-3-ylthio)-4-methyl-7-oxo-1-azabicyclo[3.2.0]hept-2-ene-2-carboxylic acid]	8 µg/mL (≈ 13.9 µM)	0.5 µg/mL (≈ 0.867 µM)	2 µg/mL (≈ 3.47 µM)	2 µg/mL (≈ 3.47 µM)	–
C[C@@H](NC(=O)Cn1cnnn1)[C@H]1C(=O)N2C(C(=O)O)=C(S[C@@H]3CN[C@H](C(=O)Nc4ccncc4)C3)[C@H](C)[C@H]12 [Example 402, (4R,5S,6R)-6-((R)-1-(2-(1H-tetrazol-1-yl)acetamido)ethyl)-4-methyl-7-oxo-3-((3S,5S)-5-(pyridin-4-ylcarbamoyl)pyrrolidin-3-ylthio)-1-azabicyclo[3.2.0]hept-2-ene-2-carboxylic acid]	1 µg/mL (≈ 1.85 µM)	0.06 µg/mL (≈ 0.111 µM)	1 µg/mL (≈ 1.85 µM)	32 µg/mL (≈ 59.1 µM)	–
C[C@@H](NC(=O)Cn1nnnc1C(=O)O)[C@H]1C(=O)N2C(C(=O)O)=C(S[C@@H]3CN[C@H](C(=O)N4CC[C@@H](N)C4)C3)[C@H](C)[C@H]12 [Example 403, (4R,5S,6R)-3-((3S,5S)-5-((R)-3-aminopyrrolidine-1-carbonyl)pyrrolidin-3-ylthio)-6-((R)-1-(2-(5-carboxy-1H-tetrazol-1-yl)acetamido)ethyl)-4-methyl-7-oxo-1-azabicyclo[3.2.0]hept-2-ene-2-carboxylic acid]	4 µg/mL (≈ 6.92 µM)	0.5 µg/mL (≈ 0.866 µM)	8 µg/mL (≈ 13.8 µM)	16 µg/mL (≈ 27.7 µM)	–
C[C@@H](NC(=O)Cn1cnnn1)[C@H]1C(=O)N2C(C(=O)O)=C(S[C@@H]3CN[C@H](C(=O)N4CCC(CN)CC4)C3)[C@H](C)[C@H]12 [Example 404, (4R,5S,6R)-6-((R)-1-(2-(1H-tetrazol-1-yl)acetamido)ethyl)-3-((3S,5S)-5-(4-(aminomethyl)piperidine-1-carbanoyl)pyrrolidin-3-ylthio)-4-methyl-7-oxo-1-azabicyclo[3.2.0]hept-2-ene-2-carboxylic acid]	1 µg/mL (≈ 1.78 µM)	0.25 µg/mL (≈ 0.445 µM)	0.5 µg/mL (≈ 0.89 µM)	1 µg/mL (≈ 1.78 µM)	–
C[C@@H](NC(=O)Cn1cnnn1)[C@H]1C(=O)N2C(C(=O)O)=C(S[C@@H]3CN[C@H](C(=O)N4CC(C)(N)C4)C3)[C@H](C)[C@H]12 [Example 405, (4R,5S,6R)-6-((R)-1-(2-(1H-tetrazol-1-yl)acetamido)ethyl)-3-((3S,5S)-5-(3-amino-3-methylazetidine-1-carbonyl)pyrrolidin-3-ylthio)-4-methyl-7-oxo-1-azabicyclo[3.2.0]hept-2-ene-2-carboxylic acid]	4 µg/mL (≈ 7.5 µM)	0.125 µg/mL (≈ 0.234 µM)	2 µg/mL (≈ 3.75 µM)	4 µg/mL (≈ 7.5 µM)	–
C[C@@H](NC(=O)Cn1cnnn1)[C@H]1C(=O)N2C(C(=O)O)=C(S[C@@H]3CN[C@H](C(=O)N4CCN([C@H]5CCNC5)CC4)C3)[C@H](C)[C@H]12 [Example 406, (4R,5S,6R)-6-((R)-1-(2-(1H-tetrazol-1-yl)acetamido)ethyl)-4-methyl-7-oxo-3-((3S,5S)-5-(4-((S)-pyrrolidin-3-yl]piperazine-1-carbonyl]pyrrolidin-3-ylthio)-1-azabicyclo[3.2.0]hept-2-ene-2-carboxylic acid]	4 µg/mL (≈ 6.64 µM)	0.25 µg/mL (≈ 0.415 µM)	2 µg/mL (≈ 3.32 µM)	16 µg/mL (≈ 26.5 µM)	–
C[C@@H](NC(=O)Cn1cnnn1)[C@H]1C(=O)N2C(C(=O)O)=C(SC3CNC3)[C@H](C)[C@H]12 [Example 407, (4R,5S,6R)-6-((R)-1-(2-(1H-tetrazol-1-yl)acetamido)ethyl)-3-(azetidin-3-ylthio)-4-methyl-7-oxo-1-azabicyclo[3.2.0]hept-2-ene-2-carboxylic acid]	2 µg/mL (≈ 4.91 µM)	0.5 µg/mL (≈ 1.23 µM)	1 µg/mL (≈ 2.45 µM)	8 µg/mL (≈ 19.6 µM)	–
C[C@@H](NC(=O)Cn1cnnn1)[C@H]1C(=O)N2C(C(=O)O)=C(S[C@@H]3CN[C@H](C(=O)N4CCN(C5CNC5)CC4)C3)[C@H](C)[C@H]12 [Example 408, (4R,5S,6R)-6-((R)-1-(2-(1H-tetrazol-1-yl)acetamido)ethyl)-3-((3S,5S)-5-(4-(azetidin-3-yl)piperazine-1-carbonyl)pyrrolidin-3-ylthio)-4-methyl-7-oxo-1-azabicyclo[3.2.0]hept-2-ene-2-carboxylic acid]	4 µg/mL (≈ 6.79 µM)	1 µg/mL (≈ 1.7 µM)	2 µg/mL (≈ 3.4 µM)	2 µg/mL (≈ 3.4 µM)	–
C[C@@H](NC(=O)Cn1cnnn1)[C@H]1C(=O)N2C(C(=O)O)=C(S[C@@H]3CN[C@H](C(=O)N4CCC(N5CC[C@@H](N)C5)CC4)C3)[C@H](C)[C@H]12 [Example 409, (4R,5S,6R)-6-((R)-1-(2-(1H-tetrazol-1-yl)acetamido)ethyl)-3-((3S,5S)-5-(4-((R)-3-aminopyrrolidin-1-yl)piperidine-1-carbonyl)pyrrolidin-3-ylthio)-4-methyl-7-oxo-1-azabicyclo[3.2.0]hept-2-ene-2-carboxylic acid]	4 µg/mL (≈ 6.49 µM)	1 µg/mL (≈ 1.62 µM)	2 µg/mL (≈ 3.24 µM)	4 µg/mL (≈ 6.49 µM)	–
C[C@@H](NC(=O)Cn1cnnn1)[C@H]1C(=O)N2C(C(=O)O)=C(S[C@@H]3CN[C@H](C(=O)N4CC[C@@H](N(C)C)C4)C3)[C@H](C)[C@H]12 [Example 410, (4R,5S,6R)-6-((R)-1-(2-(1H-tetrazol-1-yl)acetamido)ethyl)-3-((3S,5S)-5-((R)-3-(dimethylamino)pyrrolidine-1-carbonyl)pyrrolidin-3-ylthio)-4-methyl-7-oxo-1-azabicyclo[3.2.0]hept-2-ene-2-carboxylic acid]	2 µg/mL (≈ 3.56 µM)	0.5 µg/mL (≈ 0.89 µM)	4 µg/mL (≈ 7.12 µM)	4 µg/mL (≈ 7.12 µM)	–
